# Source: US12312599B2, “Methods, compositions, and kits for producing beige adipocytes and treating metabolic disorders” (MaineHealth, priority 2018, dated 2025)
# Test system: Primary human subcutaneous white adipocytes
# Experiment: UCP1 qPCR in primary human subcutaneous white adipocytes
# Assay type: cell-based
# Conditions: treated with SB
# Description: All primary cell lines isolated from WAT were generated from outgrowth of the stromal vascular fraction and purchased from commercial vendors. All cell lines were validated to be at least 95% positive for adipogenic precursors as determined by flow cytometry for PDGFRα. Human white preadipocytes (HWP-c) cells, purchased from PromoCell (C-12730), were isolated from subcutaneous adipose tissue of a person with a BMI of 28. Normal human preadipocytes, purchased from Lonza (PT-5020), were isolated from subcutaneous adipose tissue of a person with a BMI of 21. Type 2 diabetic human preadipocytes, purchased from Lonza (PT-5022), were isolated from subcutaneous adipose tissue of a person with a BMI of 42.1. Type 2 diabetic human preadipocytes, purchased from Zenbio (OPD-F-3), were isolated from omental adipose tissue of a person with a BMI of 38.6. Type 2 diabetic human preadipocytes, purchased from Zenbio (SPD-F-3), were isolated from subcutaneous adipose tissue of a person with a BMI of 53.5. Cryopreserved cells were thawed and seeded in a 100×20 mm TC dish and treated as passage 0. Primary adipogenic precursors were expanded in DMEM containing 10% fetal bovine serum. Medium was changed daily and cells were cultured at 37° C. in a 5% CO2 incubator. Upon 80% confluence, cells are split and passaged at a ratio of 1:6 (Passage 1). […]
smiles,measurement,value
"NC(=O)c1ccc(-c2nc(-c3ccc4c(c3)OCO4)c(-c3ccccn3)[nH]2)cc1 [SB, SB431542]",UCP1 expression,enhanced expression
